In patent US20120108636A1, “Allosteric Enhancers of th A1 Adenosine Receptor” (King Pharmaceuticals Research and Development, Inc., priority 2008, published 2012):

Q: Which melting point does the source give for `C=CCN(Cc1c(-c2ccccc2)sc(N)c1C(=O)c1ccc(Cl)cc1)C1CCCCC1` [Example 16-6] here?
A: 151 to 157 °C

Q: For `Cc1ccc(-c2sc(N)c(C(=O)c3ccc(Cl)cc3)c2CN(C2CCCCC2)C2CCCCC2)cc1` [Example 18, {2-Amino-4-[(dicyclohexylamino)methyl]-5-(4-methylphenyl)thiophen-3-yl}(4-chlorophenyl)methanone], which melting point is on record?
A: 191 to 194 °C

Q: Which melting point does the source give for `Cc1ccc(N(C)Cc2c(-c3ccccc3)sc(N)c2C(=O)c2ccc(Cl)cc2)cc1` [Example 16-13, {2-Amino-4-[((4-methylphenyl)(methyl)amino)methyl]-5-phenylthiophen-3-yl}(4-chlorophenyl)methanone] here?
A: 173 to 176 °C

Q: Which melting point does the source give for `Nc1sc(-c2ccccc2F)c(CN(C2CCCCC2)C2CCCCC2)c1C(=O)c1ccc(Cl)cc1` [Example 13, {2-Amino-4-[(dicyclohexylamino)methyl]-5-(2-fluorophenyl)thiophen-3-yl}(4-chlorophenyl)methanone] here?
A: 223 to 225 °C

Q: Which melting point does the source give for `Nc1sc(-c2ccncc2)c(CN(C2CCCCC2)C2CCCCC2)c1C(=O)c1ccc(Cl)cc1` [Example 36, {2-amino-4-[(dicyclohexylamino)methyl]-5-(pyridin-4-yl)thiophen-3-yl}(4-chlorophenyl)methanone] here?
A: 214 to 216 °C

Q: Which melting point does the source give for `Nc1sc(-c2cccc(F)c2)c(CN(C2CCCCC2)C2CCCCC2)c1C(=O)c1ccc(Cl)cc1` [Example 14, {2-Amino-4-[(dicyclohexylamino)methyl]-5-(3-fluorophenyl)thiophen-3-yl}(4-chlorophenyl)methanone] here?
A: 205 to 207 °C

Q: With `Nc1sc(-c2ccoc2)c(CN(C2CCCCC2)C2CCCCC2)c1C(=O)c1ccc(Cl)cc1` [Example 29, {2-Amino-[(dicyclohexylamino)methyl]-5-(furan-3-yl)thiophen-3-yl}(4-chlorophenyl)methanone] as the compound, how does the melting point read?
A: 132 to 135 °C

Q: With `Nc1sc(-c2ccccn2)c(CN(C2CCCCC2)C2CCCCC2)c1C(=O)c1ccc(Cl)cc1` [Example 34, {2-am ino-4-[(dicyclohexylamino)methyl]-5-(pyridin-2-yl)thiophen-3-yl}(4-chlorophenyl)methanone] as the compound, how does the melting point read?
A: 192 to 194 °C

Q: Which melting point does the source give for `Nc1sc(-c2cccnc2)c(CN(C2CCCCC2)C2CCCCC2)c1C(=O)c1ccc(Cl)cc1` [Example 35, {2-amino-4-[(dicyclohexylamino)methyl]-5-(pyridin-3-yl)thiophen-3-yl}(4-chlorophenyl)methanone] here?
A: 168 to 170 °C

Q: For `CC(C)Oc1ccc(-c2sc(N)c(C(=O)c3ccc(Cl)cc3)c2CN(C2CCCCC2)C2CCCCC2)cc1` [Example 16-15, {2-Amino-4-[(dicyclohexylamino)methyl]-5-(4-isopropoxyphenyl)thiophen-3-yl}(4-chlorophenyl)methanone], which melting point is on record?
A: 175 to 177 °C

Q: With `Nc1sc(-c2ccc(Cl)s2)c(CN(C2CCCCC2)C2CCCCC2)c1C(=O)c1ccc(Cl)cc1` [Example 32, {5-Amino-5′-chloro-3-[(dicyclohexylamino)methyl]-2,2′-bithiophen-4-yl}(4-chlorophenyl)methanone] as the compound, how does the melting point read?
A: 195 to 197 °C

Q: With `N#Cc1ccc(-c2sc(N)c(C(=O)c3ccc(Cl)cc3)c2CN(C2CCCCC2)C2CCCCC2)cc1` [Example 10, {2-Amino-5-(4-cyanophenyl)-4-[(dicyclohexylamino)methyl]thiophen-3-yl}(4-chlorophenyl)methanone] as the compound, how does the melting point read?
A: 196 to 200 °C

Q: Which melting point does the source give for `Nc1sc(/C=C/CC2CCCCC2)c(CN(C2CCCCC2)C2CCCCC2)c1C(=O)c1ccc(Cl)cc1` [Example 37, (E)-{2-Amino-5-(3-cyclohexylprop-1-enyl)-4-[(dicyclohexylamino)methyl]thiophen-3-yl}(4-chlorophenyl)methanone] here?
A: 147 to 150 °C

Q: Which melting point does the source give for `COCCN(CCOC)Cc1c(-c2ccccc2)sc(N)c1C(=O)c1ccc(Cl)cc1` [Example 16-8, {2-Amino-4-[(bis(2-methoxyethyl)amino)methyl]-5-phenylthiophen-3-yl}(4-chlorophenyl)methanone] here?
A: 140 to 145 °C

Q: For `Nc1sc(-c2ccc(Cl)cc2)c(CN(C2CCCCC2)C2CCCCC2)c1C(=O)c1ccc(Cl)cc1` [Example 12, {2-Amino-5-(4-chlorophenyl)-4-[(dicyclohexylamino)methyl]thiophen-3-yl}(4-chlorophenyl)methanone], which melting point is on record?
A: 200 to 204 °C

Q: With `CC(C)(C)c1ccc(-c2sc(N)c(C(=O)c3ccc(Cl)cc3)c2CN(C2CCCCC2)C2CCCCC2)cc1` [Example 11, {2-Amino-5-(4-t-butylphenyl)-4-[(dicyclohexylamino)methyl]thiophen-3-yl}(4-chlorophenyl)methanone] as the compound, how does the melting point read?
A: 180 to 184 °C

Q: With `Nc1sc(-c2cc(F)cc(F)c2)c(CN(C2CCCCC2)C2CCCCC2)c1C(=O)c1ccc(Cl)cc1` [Example 17, {2-Amino-4-[(dicyclohexylamino)methyl]-5-(3,5-difluorophenyl)thiophen-3-yl}(4-chlorophenyl)methanone] as the compound, how does the melting point read?
A: 163 to 166 °C

Q: With `Nc1sc(/C=C/Cc2ccc(Cl)cc2)c(CN(C2CCCCC2)C2CCCCC2)c1C(=O)c1ccc(Cl)cc1` [Example 38, (E)-{2-amino-5[3-(4-chlorophenyl)prop-1-enyl]-4-[(dicyclohexylamino)methyl]thiophen-3-yl}(4-chlorophenyl)methanone] as the compound, how does the melting point read?
A: 143 to 146 °C

Q: With `Nc1sc(-c2ccco2)c(CN(C2CCCCC2)C2CCCCC2)c1C(=O)c1ccc(Cl)cc1` [Example 31, {2-Amino-4-[(dicyclohexylamino)methyl]-5-(furan-2-yl)thiophen-3-yl}(4-chlorophenyl)methanone] as the compound, how does the melting point read?
A: 158 to 160 °C

Q: With `Nc1sc(-c2ccc(Cl)c(Cl)c2)c(CN(C2CCCCC2)C2CCCCC2)c1C(=O)c1ccc(Cl)cc1` [Example 16-14, {2-Amino-5-(3,4-dichlorophenyl)-4-[(dicyclohexylamino)methyl]thiophen-3-yl}(4-chlorophenyl)methanone] as the compound, how does the melting point read?
A: 222 to 225 °C

Q: Which melting point does the source give for `CC(C)CN(Cc1c(-c2ccccc2)sc(N)c1C(=O)c1ccc(Cl)cc1)CC(C)C` [Example 16-2, {2-Amino-4-[(diisobutylamino)methyl]-5-phenylthiophen-3-yl}(4-chlorophenyl)methanone] here?
A: 127 to 133 °C

Q: With `COC(=O)CN(C)Cc1c(-c2ccccc2)sc(N)c1C(=O)c1ccc(Cl)cc1` [Example 16-7] as the compound, how does the melting point read?
A: 156.5 to 160 °C

Q: For `COc1ccc(N(C)Cc2c(-c3ccccc3)sc(N)c2C(=O)c2ccc(Cl)cc2)cc1` [Example 16-12, {2-Amino-4-[((4-methoxyphenyl)(methyl)amino)methyl]-5-phenylthiophen-3-yl}(4-chlorophenyl)methanone], which melting point is on record?
A: 131.5 to 136 °C

Q: With `Nc1sc(-c2ccc(F)cc2)c(CN(C2CCCCC2)C2CCCCC2)c1C(=O)c1ccc(Cl)cc1` [Example 15, {2-Amino-4-[(dicyclohexylamino)methyl]-5-(4-fluorophenyl)thiophen-3-yl}(4-chlorophenyl)methanone] as the compound, how does the melting point read?
A: 222 to 224 °C

Q: Which melting point does the source give for `COc1ccc(-c2sc(N)c(C(=O)c3ccc(Cl)cc3)c2CN(C2CCCCC2)C2CCCCC2)cc1` [Example 19, {2-Amino-4-[(dicyclohexylamino)methyl]-5-(4-methoxyphenyl)thiophen-3-yl}(4-chlorophenyl)methanone] here?
A: 178 to 182 °C

Q: Which melting point does the source give for `Nc1sc(-c2ccccc2)c(CN(C2CCCC2)C2CCCC2)c1C(=O)c1ccc(Cl)cc1` [Example 16-4, {2-Amino-4-[(dicyclopentylamino)methyl]-5-phenylthiophen-3-yl}(4-chlorophenyl)methanone] here?
A: 135 to 141 °C

Q: With `COCCOc1ccc(-c2sc(N)c(C(=O)c3ccc(Cl)cc3)c2CN(C2CCCCC2)C2CCCCC2)cc1` as the compound, how does the melting point read?
A: 162 to 164 °C

Q: For `Nc1sc(-c2ccccc2)c(CNC23CC4CC(CC(C4)C2)C3)c1C(=O)c1ccc(Cl)cc1` [Example 16-10, {2-Amino-4-[(1-adamantylamino)methyl]-5-phenylthiophen-3-yl}(4-chlorophenyl)methanone], which melting point is on record?
A: 135 to 140 °C

Q: With `CN(Cc1c(-c2ccccc2)sc(N)c1C(=O)c1ccc(Cl)cc1)c1ccc(Cl)c(Cl)c1` [Example 16-11, {2-Amino-4-[((3,4-dichlorophenyl)(methyl)amino)methyl]-5-phenylthiophen-3-yl}(4-chlorophenyl)methanone] as the compound, how does the melting point read?
A: 80 to 84 °C

Q: For `CCCN(Cc1c(-c2ccccc2)sc(N)c1C(=O)c1ccc(Cl)cc1)C1CCCCC1` [Example 16-5, {2-Amino-4-[(cyclohexyl(propyl)amino)methyl]-5-phenylthiophen-3-yl}(4-chlorophenyl)methanone], which melting point is on record?
A: 162 to 165 °C
